US8435962B2, “Triacetyl-3-hydroxyphenyladenosine and its use for regulating blood fat” (Institute of Mataria Medica, Chinese Academy of Medical …, priority 2009, dated 2013)

Tests used:
hyperlipidemia hamsters [1] = assay: Effect on retroperitoneal fat of hyperlipidemia hamsters; type: in vivo, hamster; settings: 2 mg/kg intragastric, 4 weeks
Experimental: (§2) After a week of accommodation, except control group (n=12) all the hamsters (n=72) were fed with high-fat laboratory chow.
(§3) After four weeks high-fat diet modeling, rats were treated with different drugs by intragastric administration. Control animals received an equal volume of vehicle.
(§4) At the end of 4 weeks drug treatment, animals were fasted for 12 hours (10 of each group). The next day, they were anesthetized by intraperitoneal injection of pentobarbitale sodium (45 mg/kg). Blood samples were collected from the abdominal aorta within 15 min, and plasma was separated. Plasma TC, TG, HDL-C, LDL-C, ALT, FFA were detected. Liver and the retroperitoneal fat were separated and weighed, the liver and fat index were calculated. Liver SOD and MDA were detected by kit after homogenized. The left hamsters (10 each group) drug treatment was withdrawn while high-fat diet modeling continued. Two weeks later, blood sample was collected from the orbit and serum TC and TG were detected.

hyperlipidemia rats [2] = assay: Effects on plasma lipid in hyperlipidemia rats (high-fat diet); type: in vivo, rat; settings: 2 mg/kg intragastric, 4 weeks;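 further: rats kept on high-fat chow for 4 weeks before dosing, serum taken from abdominal aorta after a 12 h fast at end of treatment, controls given vehicle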
Experimental: (§5) After a week of accommodation, except control group (20 rat), all the rats (120 rats) were fed with high-fat laboratory chow.
as §3
(§6) At the end of 4 weeks drug treatment, animals were fasted for 12 hours before anesthetizing by intraperitoneal injection of pentobarbitale sodium (45 mg/kg), and anticoagulated by 100 U/kg heparin through caudal vein injection. Blood samples were collected from the abdominal aorta within 15 min, and serum was separated. Serum TC, TG, HDL-C, LDL-C, ALT, FFA were detected. Liver and the fat pad behind the belly were separated and weighed, the liver and retroperitoneal fat were weighed too. […] The left rats (10 rats each group) drug treatment was withdrawn while high-fat diet modeling continued. Two weeks later, blood sample was collected from the orbit, and serum TC, TG were detected.

hyperlipidemia hamsters [3] = assay: Effects on plasma lipid in hyperlipidemia hamsters (high-fat diet); type: in vivo, hamster; settings: 2 mg/kg intragastric, 4 weeks;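 further: hamsters given high-fat chow for four weeks, then dosed by gavage, plasma lipids measured in abdominal aortic blood after a 12 h fast, compared with vehicle-treated controls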
Experimental: as §2, §3, §4

hyperlipidemia rats [4] = assay: Serum lipid of hyperlipidemia rats after withdrawal from drugs for 2 weeks; type: in vivo, rat; settings: rats, 2 mg/kg; 2 weeks after drug withdrawal, high-fat diet continued
Experimental: as §5, §3, §6

hyperlipidemia rats [5] = assay: Effects on retroperitoneal fat weight of hyperlipidemic rats; type: in vivo, rat; settings: hyperlipidemic rats, 2 mg/kg intragastric, 4 weeks
Source text: (§1) Control animals received an equal volume of vehicle.

hyperlipidemia rats [6] = assay: Effects on liver weight and serum ALT activity of hyperlipidemia rats; settings: 2 mg/kg intragastric, 4 weeks
Experimental: as §5, §3, §6

hyperlipidemia rats [7] = assay: Effects on hepatic SOD activity and MDA content of hyperlipidemia rats; type: in vivo, rat; settings: 2 mg/kg intragastric, 4 weeks
Source text: as §1

hyperlipidemia hamsters [8] = assay: Effects on hepatic SOD activity and MDA concentration in hyperlipidemic hamsters' livers; type: in vivo, hamster; settings: 2 mg/kg intragastric, 4 weeks
Experimental: as §2, §3, §4

hyperlipidemia hamsters [9] = assay: Serum lipid level in hyperlipidemic hamsters after drug discontinuance (2 weeks); type: in vivo, hamster; settings: hamsters, 2 mg/kg; 2 weeks after drug discontinuance, high-fat diet continued
Experimental: as §2, §3, §4

## CCC(C)(C)C(=O)O[C@H]1C[C@@H](C)C=C2C=C[C@H](C)[C@H](CC[C@@H]3C[C@@H](O)CC(=O)O3)[C@H]21 [Simvastatin, reference compound]
Hyperlipidemia hamsters [1]
  retroperitoneal fat: 0.97 ± 0.19 g/100g
Hyperlipidemia rats [2]
  FFA: 0.96 ± 0.39 mmol/L
  HDL-C: 0.59 ± 0.13 mmol/L
  HDL/LDL: 0.50 ± 0.16
  LDL-C: 1.24 ± 0.24 mmol/L
  TC: 2.22 ± 0.36 mmol/L
  TG: 0.76 ± 0.21 mmol/L
Hyperlipidemia hamsters [3]
  HDL-C: 1.12 ± 0.21 mmol/L
  HDL/LDL: 0.45 ± 0.12
  LDL-C: 2.57 ± 0.53 mmol/L
  TC: 4.46 ± 1.63 mmol/L
  TG: 3.20 ± 1.70 mmol/L
Hyperlipidemia rats [4]
  TC: 2.14 ± 0.33 mmol/L
  TG: 0.94 ± 0.24 mmol/L
Hyperlipidemia rats [5]
  Fat weight (retroperitoneal fat): 0.70 ± 0.28 g/100 g body weight
Hyperlipidemia rats [6]; 'rat' in hamster Table 9
  Liver weight: 3.96 ± 0.93 g/100 g body weight
Hyperlipidemia rats [6]; hyperlipidemia rats
  Liver weight: 3.96 ± 0.93 g/100 g body weight
Hyperlipidemia rats [7]
  hepatic MDA: 9.29 ± 2.73 nmol/mg protein
  hepatic SOD: 99.5 ± 20.2 U/g pr
Hyperlipidemia hamsters [8]
  hepatic MDA: 4.48 ± 0.96 nmol/mg protein
  hepatic SOD: 94.6 ± 38.0 U/g pr
Hyperlipidemia hamsters [9]
  TC: 4.91 ± 1.18 mmol/L
  TG: 4.58 ± 1.01 mmol/L
